Laboratory results published in US7312245B2 (priority 2001, dated 2007).
Read-outs that look alike come from different tables or passages of the source.

Key:
Assay type in all cases: in vivo
Pyricularia oryzae [1] = details: nursery box treated with granules 50 g per box; rice Koshihikari; inoculated 30 days after transplantation; lesions counted after 1 week
Pyricularia oryzae [2] = details: spray application of wettable powder diluted to 500 ppm; rice Koshihikari 2-leaf stage; spray-inoculated with Pyricularia oryzae spores; examined after 7 days
Pyricularia oryzae [3] = details: granules applied to water surface at 3 kg/10 ares; rice Koshihikari; inoculated 30 days after application; lesions checked after 1 week

SMILES | Grade of Effect (preventive value, rice blast controlling effect) (Pyricularia oryzae [1]) | Grade of Effect (preventive value, rice blast controlling effect) (Pyricularia oryzae [2]) | Grade of Effect (preventive value, rice blast controlling effect) (Pyricularia oryzae [3])
Cc1ccc(C(=O)NCC(C)NC(=O)OC(C)C)cc1 (stereo not drawn) [compound 215] | A (From 80% to 100%) | A (100%) | A (From 80% to 100%)
CCC(CNC(=O)Oc1ccccc1)NC(=O)OC (stereo not drawn) [Formula (8), reference compound] | C (less than 50%) | D (less than 50%) | C (less than 50%)
CC(OC(=O)NC(CNC(=O)c1ccc(Cl)cc1)C(C)C)c1ccccc1 (stereo not drawn) [compound 1078] | A (From 80% to 100%) | A (100%) | A (From 80% to 100%)
O=C(NC(CNC(=O)c1ccccc1)c1ccccc1)OCc1ccccc1 (stereo not drawn) [compound 636, N-(benzyloxycarbonyl)-N′-benzoyl-1-phenyl-1,2-ethylenediamine] | A (From 80% to 100%) | A (100%) | A (From 80% to 100%)
Cc1ccc(C(=O)NCC(NC(=O)OCC(C)C)C(C)C)cc1 (stereo not drawn) [compound 387] | A (From 80% to 100%) | A (100%) | A (From 80% to 100%)
CC(C)OC(=O)NC(CNC(=O)c1ccc(Cl)cc1)C(C)C (stereo not drawn) [compound 237] | A (From 80% to 100%) | A (100%) | A (From 80% to 100%)
Cc1ccc(C(=O)NCC(NC(=O)OC(C)C)C(C)C)cc1 (stereo not drawn) [compound 240] | A (From 80% to 100%) | A (100%) | A (From 80% to 100%)
C#CCOC(=O)NC(CNC(=O)c1ccc(C)cc1)C(C)C (stereo not drawn) [compound 807] | A (From 80% to 100%) | A (100%) | A (From 80% to 100%)
Cc1ccc(C(=O)NCC(NC(=O)OC(C)C)C(C)C)s1 (stereo not drawn) [compound 243] | A (From 80% to 100%) | A (100%) | A (From 80% to 100%)
Cc1ccc(C(=O)NCC(NC(=O)OCc2ccoc2)C(C)C)cc1 (stereo not drawn) [compound 1141] | A (From 80% to 100%) | A (100%) | A (From 80% to 100%)
CC(C)C(CNC(=O)c1ccc(Cl)cc1)NC(=O)OCC1CCCO1 (stereo not drawn) [compound 1153] | A (From 80% to 100%) | A (100%) | A (From 80% to 100%)
CSCCOC(=O)NC(CNC(=O)c1ccc(Cl)cc1)C(C)C (stereo not drawn) [compound 1258] | A (From 80% to 100%) | A (100%) | A (From 80% to 100%)
CC(C)C(NC(=O)OC(C)(C)C)C(C)NC(=O)c1ccc(Cl)cc1 (stereo not drawn) [compound 471] | A (From 80% to 100%) | A (100%) | A (From 80% to 100%)
CC(C)OC(=O)NC(CNC(=O)c1ccccc1)C(C)C (stereo not drawn) [compound 236] | A (From 80% to 100%) | A (100%) | A (From 80% to 100%)
C=C(C)COC(=O)NC(CNC(=O)c1ccc(Cl)cc1)C(C)C (stereo not drawn) [compound 1213] | A (From 80% to 100%) | A (100%) | A (From 80% to 100%)
CC(C)C(CNC(=O)c1ccc(Cl)cc1)NC(=O)OCC1CC1 (stereo not drawn) [compound 1183] | A (From 80% to 100%) | A (100%) | A (From 80% to 100%)

SMILES | Grade of Effect (preventive value, rice blast controlling effect) (Pyricularia oryzae [1]) | Grade of Effect (preventive value, rice blast controlling effect) (Pyricularia oryzae [2]) | Grade of Effect (preventive value, rice blast controlling effect) (Pyricularia oryzae [3])
Cc1ccc(C(=O)NC(C)C(NC(=O)OC(C)(C)C)C(C)C)cc1 (stereo not drawn) [compound 470] | A (From 80% to 100%) | A (100%) | A (From 80% to 100%)
Cc1ccc(C(=O)NCC(NC(=O)OCc2cccs2)C(C)C)cc1 (stereo not drawn) [compound 1171] | A (From 80% to 100%) | A (100%) | A (From 80% to 100%)
CC(C)C(CNC(=O)c1ccc(Cl)cc1)NC(=O)OCc1ccc(Cl)cc1 (stereo not drawn) [compound 1063] | A (From 80% to 100%) | A (100%) | A (From 80% to 100%)
CC(C)OC(=O)NC(CNC(=O)c1ccc2ccccc2c1)C(C)C (stereo not drawn) [compound 242] | A (From 80% to 100%) | A (100%) | A (From 80% to 100%)
CC(C)C(CNC(=O)c1ccc(Cl)cc1)NC(=O)OCc1cccs1 (stereo not drawn) [compound 1168] | A (From 80% to 100%) | A (100%) | A (From 80% to 100%)
Cc1ccc(C(=O)NCC(NC(=O)OCc2ccccc2)C(C)C)cc1 (stereo not drawn) [compound 600] | A (From 80% to 100%) | A (100%) | A (From 80% to 100%)
CC(C)C(CNC(=O)c1ccc(Cl)cc1)NC(=O)OC(C)C(C)C (stereo not drawn) [compound 1228] | A (From 80% to 100%) | A (100%) | A (From 80% to 100%)
Cc1ccc(C(=O)NCC(C)(NC(=O)OC(C)c2ccccc2)C(C)C)cc1 (stereo not drawn) [compound 1081] | A (From 80% to 100%) | A (100%) | A (From 80% to 100%)
Cc1ccc(C(=O)NCC(NC(=O)OCc2ccco2)C(C)C)cc1 (stereo not drawn) [compound 1126] | A (From 80% to 100%) | A (100%) | A (From 80% to 100%)
CC(C)OC(=O)NC(CNC(=O)c1ccc(Cl)c(Cl)c1)C(C)C (stereo not drawn) [compound 238] | A (From 80% to 100%) | A (100%) | A (From 80% to 100%)
CC(C)C(CNC(=O)c1ccccc1)NC(=O)OCc1ccccc1 (stereo not drawn) [compound 596] | A (From 80% to 100%) | A (100%) | A (From 80% to 100%)
COC(=O)NC(CNC(=O)c1ccccc1)C(C)C (stereo not drawn) [compound 26] | A (From 80% to 100%) | A (100%) | A (From 80% to 100%)
C=CCOC(=O)NC(CNC(=O)c1ccc(C)cc1)C(C)C (stereo not drawn) [compound 742] | A (From 80% to 100%) | A (100%) | A (From 80% to 100%)
CC(C)C(CNC(=O)c1ccc(Cl)cc1)NC(=O)OCc1ccco1 (stereo not drawn) [compound 1123] | A (From 80% to 100%) | A (100%) | A (From 80% to 100%)
CC(C)OC(=O)NC(CNC(=O)c1ccc(Cl)cc1)Cc1ccccc1 (stereo not drawn) [compound 290, N-(4-chlorobenzoyl)-N′-(i-propoxycarbonyl)-3-phenyl-1,2-propanediamine] | A (From 80% to 100%) | A (100%) | A (From 80% to 100%)
